As usually defined, the pEC50 is −log10 of the EC50, conventionally taken in molar units.

pEC50: −log10 of the molar value.

Experiment [1] addresses human FPR2 (Homo sapiens (Human), UniProt P25090). The experiment in a line: FPR2 cyclic adenosine monophosphate (cAMP) assay. Type of experiment: cell-based. The note with it: CHO cells overexpressing human FPR2; forskolin 5 µM; inhibition of cAMP production; read-out: hFPR2 cAMP2 EC50. In outline: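 Inhibition of forskolin-driven (5 µM) cAMP, with 200 µM IBMX, measured in human FPR2-expressing CHO cells, 2,000 per well, 30 min at room temperature; compounds tested 0.020 nM to 100 µM in 1% DMSO. HTRF 665/590 ratio converted to cAMP via calibration curve, then 4-parameter fit.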
For orientation: Changes in cAMP serve as a functional read-out for many G protein-coupled receptors.

The target in experiment [2] is human FPR1 (Homo sapiens (Human), UniProt P21462). The experiment in a line: FPR1 cyclic adenosine monophosphate (cAMP) assay. The note with it: CHO cells overexpressing human FPR1; forskolin 10 µM; inhibition of cAMP production; read-out: hFPR1 cAMP EC50. Type of experiment: cell-based. In outline: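 Human FPR1-expressing CHO cells were used at 4,000 per well, with compound at 0.020 nM–100 µM in 1% DMSO. Potency came from a 4-parameter logistic fit.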
human FPR1, sequence (P21462 whole entry): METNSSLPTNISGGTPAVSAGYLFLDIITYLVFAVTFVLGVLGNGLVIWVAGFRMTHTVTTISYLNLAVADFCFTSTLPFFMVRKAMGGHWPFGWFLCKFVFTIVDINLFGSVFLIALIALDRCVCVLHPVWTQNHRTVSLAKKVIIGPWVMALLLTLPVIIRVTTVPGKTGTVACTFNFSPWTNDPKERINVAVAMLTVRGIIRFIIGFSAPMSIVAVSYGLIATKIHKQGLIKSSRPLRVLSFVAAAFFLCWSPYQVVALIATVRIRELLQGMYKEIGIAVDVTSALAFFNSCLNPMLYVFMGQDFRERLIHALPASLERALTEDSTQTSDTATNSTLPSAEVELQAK

human FPR2, sequence (P25090 whole entry): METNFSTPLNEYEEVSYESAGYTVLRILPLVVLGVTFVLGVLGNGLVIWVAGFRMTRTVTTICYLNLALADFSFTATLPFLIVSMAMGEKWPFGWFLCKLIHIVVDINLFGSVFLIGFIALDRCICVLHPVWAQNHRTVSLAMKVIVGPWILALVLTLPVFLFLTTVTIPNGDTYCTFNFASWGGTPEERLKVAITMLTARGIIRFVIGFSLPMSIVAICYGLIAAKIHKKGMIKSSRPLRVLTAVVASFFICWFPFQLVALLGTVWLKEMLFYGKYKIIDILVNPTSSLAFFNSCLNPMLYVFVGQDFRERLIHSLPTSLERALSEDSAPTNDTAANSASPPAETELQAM

Regarding `COc1cc(F)c([C@@H]2CN(c3nc(N4C[C@@H](C)N(C)[C@@H](C)C4)ccc3C#N)C(=O)[C@H]2NC(=O)c2ccc(OC(F)F)cc2)c(F)c1` [Example 332], the pEC50 in experiment [1] is 7.89; in experiment [2], 5.24.

Regarding `COc1cc(F)c([C@@H]2CN(c3nc(N4CCN(C)CC4)ccc3C(F)F)C(=O)[C@H]2NC(=O)c2ccc(Cl)cc2)c(F)c1` [Example 333], the pEC50 in experiment [1] was 7.85; in experiment [2], 5.24.

In the case of `COc1cc(F)c([C@@H]2CN(c3nccc(N4C[C@@H]5C[C@H]4CN5C)c3C(F)(F)F)C(=O)[C@H]2NC(=O)c2ccc(Cl)cc2)c(F)c1` [Example 334], the values for the pEC50 in experiment [1] and in experiment [2] were 7.85 and 6.32, respectively.

For the molecule `COc1cc(F)c([C@@H]2CN(C3CCC3)C(=O)[C@H]2NC(=O)c2ccc(OC(F)(F)F)cc2)c(F)c1` [Example 335], the pEC50 in experiment [1] is 7.82; in experiment [2], 6.35.

In the case of `COCCn1c(C)ccc(N2C[C@@H](c3c(F)cc(OC)cc3F)[C@H](NC(=O)c3ccc(OC(F)F)cc3)C2=O)c1=O` [Example 336], the pEC50 was 7.77 in experiment [1] and 7.22 in experiment [2].

Consider `COc1cc(F)c([C@@H]2CN(c3c(C(F)(F)F)ccn(C)c3=O)C(=O)[C@H]2NC(=O)c2ccc(Cl)cc2)c(F)c1` [Example 337], for which the values for the pEC50 in experiment [1] and in experiment [2] were 7.77 and 5.37, respectively.

Take `COCCn1ccc(C)c(N2C[C@@H](c3ccc(Cl)cc3)[C@H](NC(=O)c3ccc(OC(F)(F)F)cc3)C2=O)c1=O` [Example 339]: the pEC50 in experiment [1] was 7.64; in experiment [2], 9.22.

On to `COCCn1ccc(C)c(N2C[C@@H](c3ccc(Cl)cc3)[C@H](NC(=O)c3ccc(OC(F)F)cc3)C2=O)c1=O` [Example 340], for which the results for the pEC50 in experiment [1] and in experiment [2] were 7.64 and 8.96, respectively.

`COc1cc(F)c([C@@H]2CN(c3c(F)cccc3C#N)C(=O)[C@H]2NC(=O)c2ccc(Cl)cc2)c(F)c1` [Example 341]: the pEC50 in experiment [1] was 7.64; in experiment [2] it was 5.39.

As for `COCCn1cccc(N2C[C@@H](c3c(F)cc(OC)cc3F)[C@H](NC(=O)c3ccc(OC)cc3)C2=O)c1=O` [Example 342], the pEC50 is 7.49 in experiment [1] and 6.08 in experiment [2].

As for `COc1cc(F)c([C@@H]2CN(c3nc(C4CCOCC4)ccc3N(C)C)C(=O)[C@H]2NC(=O)c2ccc(OC(F)F)cc2)c(F)c1` [Example 343], the pEC50 in experiment [1] was 7.48; in experiment [2], 6.92.

For the molecule `COc1cc(F)c([C@@H]2CN(c3ncccc3C(F)(F)F)C(=O)[C@H]2NC(=O)c2ccc(Cl)nc2)c(F)c1` [Example 344], the pEC50 in experiment [1] is 7.34; in experiment [2], 5.70.

Consider `CCn1cccc(N2C[C@@H](c3c(F)cc(OC)cc3F)[C@H](NC(=O)c3cccc(OC)c3)C2=O)c1=O` [Example 345], for which the values for the pEC50 in experiment [1] and in experiment [2] were 7.05 and 8.51, respectively.

For the molecule `COc1cc(F)c([C@@H]2CN(c3cncnc3O)C(=O)[C@H]2NC(=O)c2ccc(OC(F)F)cc2)c(F)c1` [Example 346], the pEC50 in experiment [1] was 7.01; in experiment [2], 5.72.

Turning to `COCCn1cccc(N2C[C@@H](c3c(F)cc(OC)cc3F)[C@H](NC(=O)c3ccc(OC(C)C)cc3)C2=O)c1=O` [Example 347], the pEC50 was 6.96 in experiment [1] and 6.08 in experiment [2].

As for `COc1cc(F)c([C@@H]2CN(c3nc(N4C[C@@H](C)N(C)[C@@H](C)C4)ccc3C3CC3)C(=O)[C@H]2NC(=O)c2ccc(OC(F)F)cc2)c(F)c1` [Example 348], the results for the pEC50 in experiment [1] and in experiment [2] were 6.96 and 5.85, respectively.

On to `COc1cc(F)c([C@@H]2CN(c3ncccc3C(F)(F)F)C(=O)[C@H]2NC(=O)C2CCc3cc(OC)ccc3C2)c(F)c1` (stereo partly shown) [Example 349], for which the results for the pEC50 in experiment [1] and in experiment [2] were 6.24 and 5.26, respectively.

As to `COc1cc(F)c([C@@H]2CN(c3c(C)ccn(C4CCOC4)c3=O)C(=O)[C@H]2NC(=O)c2ccc(OC(F)(F)F)cc2)c(F)c1` (stereo partly shown) [Example 350], the pEC50 in experiment [1] was 9.05; in experiment [2] it was 9.22.

For the molecule `COc1cc(F)c([C@@H]2CN(c3c(C)ccn(C4CC4)c3=O)C(=O)[C@H]2NC(=O)c2ccc(OC(F)F)cc2)c(F)c1` [Example 351], the pEC50 in experiment [1] was 8.10; in experiment [2] it was 8.30.

For the molecule `COc1cc(F)c([C@@H]2CN(c3c(C)ccn(C4CC4)c3=O)C(=O)[C@H]2NC(=O)c2ccc(OC(F)(F)F)cc2)c(F)c1` [Example 352], the results for the pEC50 in experiment [1] and in experiment [2] were 8.32 and 8.52, respectively.

With `COCCN1CCC(N2C[C@@H](c3c(F)cc(OC)cc3F)[C@H](NC(=O)c3ccc(OC(F)(F)F)cc3)C2=O)C1=O` (stereo partly shown) [Example 353], the pEC50 in experiment [1] is 8.38; in experiment [2] it was 7.77.

As for `COc1ccc([C@@H]2CN(c3cccn(CC(O)C(F)(F)F)c3=O)C(=O)[C@H]2NC(=O)c2ccc(OC(F)(F)F)cc2)cc1` (stereo partly shown) [Example 354], the pEC50 in experiment [1] was 8.49; in experiment [2] it was 8.15.

In the case of `O=C(N[C@@H]1C(=O)N(c2cccn(CC(O)C(F)(F)F)c2=O)C[C@H]1c1ccc(Cl)cc1)c1ccc(OC(F)(F)F)cc1` (stereo partly shown) [Example 355], the pEC50 in experiment [1] was 8.35; in experiment [2] it was 8.40.

For `COc1cc(F)c([C@@H]2CN(c3ccnn(CCO)c3=O)C(=O)[C@H]2NC(=O)c2ccc(OC(F)(F)F)cc2)c(F)c1` [Example 356], the pEC50 is 8.46 in experiment [1] and 7.51 in experiment [2].

For `CCn1nccc(N2C[C@@H](c3c(F)cc(OC)cc3F)[C@H](NC(=O)c3ccc(OC(F)(F)F)cc3)C2=O)c1=O` [Example 357], the pEC50 in experiment [1] was 8.51; in experiment [2] it was 7.92.

As to `CCn1nccc(N2C[C@@H](c3c(F)cc(OC)cc3F)[C@H](NC(=O)c3ccc(OC(F)F)cc3)C2=O)c1=O` [Example 358], the pEC50 in experiment [1] is 8.70; in experiment [2], 7.85.

Regarding `COc1cc(F)c([C@@H]2CN(c3c(C)ccn(CC(C)O)c3=O)C(=O)[C@H]2NC(=O)c2ccc(OC(F)(F)F)cc2)c(F)c1` (stereo partly shown) [Example 359], the results for the pEC50 in experiment [1] and in experiment [2] were 8.35 and 8.22, respectively.

`COc1cc(F)c([C@@H]2CN(c3c(C)ccn(CC(C)O)c3=O)C(=O)[C@H]2NC(=O)c2ccc(OC(F)F)cc2)c(F)c1` (stereo partly shown) [Example 360]: the negative-log EC50 (pEC50) was 8.49 in experiment [1] and 7.74 in experiment [2].

Take `COc1cc(F)c([C@@H]2CN(c3c(C)ccn(CC(C)O)c3=O)C(=O)[C@H]2NC(=O)c2ccc(OC(F)(F)F)cc2)c(F)c1` (stereo partly shown) [Example 361]: the pEC50 was 8.77 in experiment [1] and 8.52 in experiment [2].

With `COc1cc(F)c([C@@H]2CN(c3c(C)ccn(CC(C)O)c3=O)C(=O)[C@H]2NC(=O)c2ccc(Cl)cc2)c(F)c1` (stereo partly shown) [Example 362], the pEC50 was 10.00 in experiment [1] and 7.92 in experiment [2].

Consider `COCC(C(=O)N1C[C@@H]2C[C@H]1CO2)n1cccc(N2C[C@@H](c3c(F)cc(OC)cc3F)[C@H](NC(=O)c3ccc(OC(F)(F)F)cc3)C2=O)c1=O` (stereo partly shown) [Example 363], for which the values for the pEC50 in experiment [1] and in experiment [2] were 9.10 and 8.52, respectively.

Consider `COc1ccc([C@@H]2CN(c3cccn(CC(OC)C(F)(F)F)c3=O)C(=O)[C@H]2NC(=O)c2ccc(OC(F)(F)F)cc2)c(F)c1` (stereo partly shown) [Example 364], for which the pEC50 in experiment [1] is 8.64; in experiment [2], 9.00.

On to `COCCn1ccc(C)c(N2C[C@@H](c3ccc(OC)cc3)[C@H](NC(=O)c3ccc(Cl)cc3)C2=O)c1=O` [Example 365], for which the pEC50 was 8.59 in experiment [1] and 9.00 in experiment [2].

Turning to `COc1ccc([C@@H]2CN(c3c(C)ccn(CC(F)F)c3=O)C(=O)[C@H]2NC(=O)c2ccc(Cl)cc2)cc1` [Example 366], the pEC50 in experiment [1] and in experiment [2] was 8.52 each time.

`COc1ccc([C@@H]2CN(c3c(C)ccn(CCO)c3=O)C(=O)[C@H]2NC(=O)c2ccc(OC(F)F)cc2)c(F)c1` [Example 367]: the pEC50 was 8.92 in experiment [1] and 8.52 in experiment [2].

On to `O=C(N[C@@H]1C(=O)N(c2cccn(CC(O)C(F)(F)F)c2=O)C[C@H]1c1ccc(Cl)cc1)c1ccc(OC(F)F)cc1` (stereo partly shown) [Example 368], for which the pEC50 was 8.77 in experiment [1] and 7.07 in experiment [2].

Regarding `CCn1cncc(N2C[C@@H](c3c(F)cc(OC)cc3F)[C@H](NC(=O)c3ccc(OC(F)F)cc3)C2=O)c1=O` [Example 369], the pEC50 in experiment [1] was 8.43; in experiment [2], 5.96.

Consider `COCCn1cncc(N2C[C@@H](c3c(F)cc(OC)cc3F)[C@H](NC(=O)c3ccc(OC(F)F)cc3)C2=O)c1=O` [Example 370], for which the pEC50 was 8.43 in experiment [1] and 5.85 in experiment [2].

Turning to `COc1ccc([C@@H]2CN(c3cccn(CC(O)C(F)(F)F)c3=O)C(=O)[C@H]2NC(=O)c2ccc(OC(F)F)cc2)cc1` (stereo partly shown) [Example 371], the values for the pEC50 in experiment [1] and in experiment [2] were 8.72 and 8.10, respectively.

Take `CCN1CCC(N2C[C@@H](c3c(F)cc(OC)cc3F)[C@H](NC(=O)c3ccc(OC(F)(F)F)cc3)C2=O)C1=O` (stereo partly shown) [Example 372]: the pEC50 in experiment [1] is 8.55; in experiment [2], 7.77.

`CCn1ccc(F)c(N2C[C@@H](c3c(F)cc(OC)cc3F)[C@H](NC(=O)c3ccc(OC(F)F)cc3)C2=O)c1=O` [Example 373]: the figures for the pEC50 in experiment [1] and in experiment [2] were 7.90 and 6.63, respectively.

For the molecule `COc1ccc([C@@H]2CN(c3c(C)ccn(CCO)c3=O)C(=O)[C@H]2NC(=O)c2ccc(OC(F)(F)F)cc2)c(F)c1` [Example 375], the pEC50 in experiment [1] is 8.80; in experiment [2], 8.52.

On to `COc1ccc([C@@H]2CN(c3c(C)ccn(CC(F)F)c3=O)C(=O)[C@H]2NC(=O)c2ccc(OC(F)F)cc2)c(F)c1` [Example 376], for which the pEC50 in experiment [1] is 9.40; in experiment [2], 8.40.

Consider `COc1ccc([C@@H]2CN(c3c(C)ccn(CC(F)F)c3=O)C(=O)[C@H]2NC(=O)c2ccc(Cl)cc2)c(F)c1` [Example 377], for which the figures for the pEC50 in experiment [1] and in experiment [2] were 8.80 and 8.30, respectively.
